Format in all cases: cell-based
For assay [1], the system named is carbapenem-resistant Acinetobacter baumannii CR-AB 18-560. The assay is described as follows: MIC by microbroth dilution, CR-AB 18-560. The source says: (§1) The minimal inhibitory concentration (MIC) of the compounds as determined by a microbroth dilution method with gentamicin, cefazolin sodium and ceftriaxone sodium as positive control.
(§2) The experimental strains included methicillin-resistant Gram-positive bacteria: methicillin-resistant Staphylococcus aureus MRSA 18-222, 18-575; multiple drug-resistant […] bacteria: vancomycin-resistant enterococci VRE 18-80, 18-94; multidrug-resistant Pseudomonas aeruginosa MDR-PA 18-1774, 18-202; carbapenem-resistant Acinetobacter baumannii CR-AB 18-183, 18-560. All the experimental strains were donated by Huashan Hospital affiliated to Fudan University (Institute of Antibiotics, Fudan University) and used after routine identification.
(§3) Preparation of Test Strains:
(§4) Preparation of MHB medium: 20.0 g MHB medium was added to 1 L distilled water, boiled until completely dissolved, packed in conical bottles and sterilized at 121° C. for 15 min.
(§5) The experimental strain was cultured to the logarithmic growth phase: under aseptic condition, the experimental strain was inoculated into 100 mL NMB medium and incubated in a constant temperature and humidity incubator at 37° C. for 20-22 hours.
(§6) Preparation of storage solution: weigh the sample to be tested, dissolve it with 1% DMSO solution, prepare a storage solution with a concentration of 2560 μg/mL, weigh a positive reference substance, dissolve it with aseptic distilled water, and configure a storage solution with a concentration of 2560 μg/mL.
(§7) Preparation of bacterial suspension: under aseptic condition, the experimental strains cultured to logarithmic growth phase were adjusted to 0.5 MCF turbidity standard with MHB medium and diluted according to 1:10, and the bacterial suspension with concentration of 10^6 CFU/mL was prepared for standby.
(§8) Dilution of storage solution and inoculation of experimental strain: under aseptic condition, the storage solution was diluted to 256 μg/mL solution. Take a sterile 96-well plate, add 200 μL MHB medium to the 12th well, and add 100 μL MHB medium to each well. Add 100 μL of positive control solution to the first well, mix well, and suck 100 μL from it and discard. Add 100 μL of the compound sample solution to the second well, mix well, and then pipette 100 μL to the third well. After mixing, pipette 100 μL to the fourth well, and dilute to the 11th well in this way. Finally, 100 μL was pipetted from the 11th well and discarded. The 12th hole was the growth control without drugs. So far, the concentration of the positive reference substance is 128 μg/mL, the concentrations of the sample solution are 128, 64, 16, 8, 4, 2, 1, 0.5, 0.25 μg/mL respectively. Then, 100 μL of the prepared bacterial suspension is added to each well, so that the final concentration of the bacterial liquid in each well is 5×10^5 CFU/mL.
(§9) Incubation: Cover the 96-well plate inoculated with the experimental strains, and incubate in a constant temperature and humidity box at 37° C. for 20-22 hours.
In general terms: Dilution methods test growth across graded concentrations, often in twofold steps.

Assay [2] concerns vancomycin-resistant enterococci VRE 18-80. The assay is described as follows: MIC by microbroth dilution, VRE 18-80.
Description: as §1, §2, §3, §4, §5, §6, §7, §8, §9

Assay [3] concerns carbapenem-resistant Acinetobacter baumannii CR-AB 18-183. Description: MIC by microbroth dilution, CR-AB 18-183.
Description: as §1, §2, §3, §4, §5, §6, §7, §8, §9

The test system of assay [4] is multidrug-resistant Pseudomonas aeruginosa MDR-PA 18-174. The assay is described as follows: MIC by microbroth dilution, MDR-PA 18-174. As to conditions: for Minimum bacteriostatic concentration: MDR-PA 18-174.
Description: as §1, §2, §3, §4, §5, §6, §7, §8, §9
In FIGS. 1-6, the twelve wells represent twelve groups, from left to right, positive, 128 μg/mL, 64 μg/mL, 32 μg/mL, 16 μg/mL, 8 μg/mL, 4 μg/mL, 2 μg/mL, 1 μg/mL, 0.25 μg/mL, 0.0625 μg/mL, Negative.

Assay [5] has as its system methicillin-resistant Staphylococcus aureus MRSA 18-575. The assay is described as follows: MIC by microbroth dilution, MRSA 18-575.
Description: as §1, §2, §3, §4, §5, §6, §7, §8, §9

Assay [6] concerns vancomycin-resistant enterococci VRE 18-94. Description: MIC by microbroth dilution, VRE 18-94. As to conditions: for Minimum bacteriostatic concentration: VRE 18-94.
Description: as §1, §2, §3, §4, §5, §6, §7, §8, §9

In assay [7] the test system is multidrug-resistant Pseudomonas aeruginosa MDR-PA 18-202. Description: MIC by microbroth dilution, MDR-PA 18-202.
Description: as §1, §2, §3, §4, §5, §6, §7, §8, §9

Assay [8] has as its system methicillin-resistant Staphylococcus aureus MRSA 18-222. The assay is described as follows: MIC by microbroth dilution, MRSA 18-222.
Description: as §1, §2, §3, §4, §5, §6, §7, §8, §9

The next assay concerns drug-resistant bacteria. The assay is described as follows: Antibacterial activity test, whole panel of drug-resistant strains. As to conditions: all tested strains, summary in words.
Description: as §1, §2, §3, §4
The experimental strain was cultured to the logarithmic growth phase: under aseptic condition, the experimental strain was inoculated into 100 mL NMB medium and incubated in a constant temperature and humidity incubator at 37° C. for 20-22 hours. […]

≈ marks a conversion by molar mass, not a printed value.

As for `Cc1nnc(SCC2=C(C(=O)O)N3C(=O)[C@@H](NC(=O)Cn4cnnn4)[C@H]3SC2)s1` [Cefazolin sodium, cefazolin sodium], the Minimum bacteriostatic concentration in [1] is >128 µg/mL; in assay [2] it was 32 µg/mL; in assay [3], >128 µg/mL; in assay [4], 8 µg/mL; in assay [5] it was >128 µg/mL; in assay [6], >128 µg/mL. In addition, the Minimum bacteriostatic concentration in [7] was 128 µg/mL; in assay [8], >128 µg/mL.
Consider `CO/N=C(\C(=O)N[C@@H]1C(=O)N2C(C(=O)O)=C(CSc3nc(=O)c(=O)[nH]n3C)CS[C@H]12)c1csc(N)n1` [Ceftriaxone sodium, ceftriaxone sodium], for which the Minimum bacteriostatic concentration is >128 µg/mL in assay [1]; 8 µg/mL in assay [2]; >128 µg/mL in assay [3]; 128 µg/mL in assay [4]; >128 µg/mL in assay [5]; >128 µg/mL in assay [6]. Besides, the Minimum bacteriostatic concentration in assay [7] is 16 µg/mL; in assay [8] it was >128 µg/mL.
For orientation: MIC means the lowest concentration that inhibits growth of the organism. High values mean a need for much substance, low ones inhibition by little substance. Turning to `O=C(Nc1cc(=O)[nH]c(=O)[nH]1)c1cc(O)c2c(c1)C(=O)c1cccc(O)c1C2=O` [6-Aminouracil cassic acid ester, N-(2,6-dioxo-1,2,3,6-tetrahydropyrimidin-4-yl)-4,5-dihydroxy-9,10-dioxo-9,10-dihydroanthracene-2-carboxamide], the Minimum bacteriostatic concentration in assay [1] was >128 µg/mL; in [2], >128 µg/mL; in assay [3], >128 µg/mL; in [4], 128 µg/mL; in assay [5], >128 µg/mL; in assay [6], 64 µg/mL. Besides, the Minimum bacteriostatic concentration in assay [7] and in assay [8] was >128 µg/mL in each case. Besides, the MIC in assay [4] (multi-drug resistant Pseudomonas aeruginosa MDR-PA, strain not given) turned out to be 128 µg/mL (≈ 325 µM); in assay [6] (vancomycin resistant Enterococcus VRE, strain not given) it was 64 µg/mL (≈ 163 µM).
In the case of `Nc1cc(=O)[nH]c(=O)[nH]1` [6-Aminouracil], the Minimum bacteriostatic concentration in assay [1], in assay [2], in assay [3], in assay [4], in [5] and in assay [6] was >128 µg/mL throughout. The Minimum bacteriostatic concentration in assay [7] and in [8] was >128 µg/mL throughout. Besides, in the assay with drug-resistant bacteria, the “inhibitory effect on drug-resistant bacteria” value was “no inhibitory effect”.
In the case of `O=C(O)c1cc(O)c2c(c1)C(=O)c1cccc(O)c1C2=O` [Cassic acid], the Minimum bacteriostatic concentration in assay [1], in assay [2], in assay [3], in assay [4], in [5] and in assay [6] was >128 µg/mL each time. In addition, the Minimum bacteriostatic concentration in assay [7] and in [8] was >128 µg/mL each time. Besides, in the assay on drug-resistant bacteria, the “inhibitory effect on drug-resistant bacteria” value is reported as “no inhibitory effect”.
In the case of gentamicin, the Minimum bacteriostatic concentration in assay [1] was >128 µg/mL; in assay [2], 0.0625 µg/mL; in assay [3], >128 µg/mL; in [4] it was 0.0625 µg/mL; in assay [5], 2 µg/mL; in [6], >128 µg/mL. The Minimum bacteriostatic concentration in assay [7] came out at 0.0625 µg/mL; in assay [8], 128 µg/mL.

Values taken from US10941120B1, “6-aminouracil cassic acid ester with antibacterial activity and a method of preparing the same” (SHAANXI UNIVERSITY OF SCIENCE AND TECHNOLOGY, priority 2020, dated 2021).
